Source: US11053204B2, “Pyrimidinyloxy benzene derivatives as herbicides” (FMC Corporation, priority 2015, dated 2021)

Key:
Experiment in all cases: Test C postemergence, plant response rating
Format in all cases: in vivo
[1] = tested on: blackgrass (Alopecurus myosuroides); settings: for Plant response rating, Blackgrass: scale 0 to 100; for Blackgrass plant response rating: scale 0 to 100 (0 no effect, 100 complete control)
Summary of the method: (§1)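 Visual injury score, 0 = no effect, 100 = complete control, assigned against untreated controls after 13 to 15 d in the greenhouse. Compounds were applied in a surfactant-containing non-phytotoxic solvent mix, preemergence to seeded loam/sand or silt loam soil, or postemergence to 1- to 4-leaf plants (2 to 18 cm).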

corn (Zea mays) = settings: for Corn plant response rating: scale 0 to 100 (0 no effect, 100 complete control)
Summary of the method: as §1

[2] = tested on: crabgrass, large (large crabgrass, Digitaria sanguinalis); settings: for Crabgrass, Large plant response rating: scale 0 to 100 (0 no effect, 100 complete control)
Summary of the method: as §1

[3] = tested on: galium (catchweed bedstraw, Galium aparine); settings: for Galium plant response rating: scale 0 to 100 (0 no effect, 100 complete control)
Summary of the method: as §1

kochia (Kochia scoparia) = settings: for Kochia plant response rating: scale 0 to 100 (0 no effect, 100 complete control)
Summary of the method: as §1

[4] = tested on: lambsquarters (Chenopodium album); settings: for Lambsquarters plant response rating: scale 0 to 100 (0 no effect, 100 complete control)
Summary of the method: as §1

[5] = tested on: nutsedge, yellow (yellow nutsedge, Cyperus esculentus); settings: for Nutsedge, Yellow plant response rating: scale 0 to 100 (0 no effect, 100 complete control)
Summary of the method: as §1

[6] = tested on: oat, wild (wild oat Avena fatua); settings: for Oat, Wild plant response rating: scale 0 to 100 (0 no effect, 100 complete control)
Summary of the method: as §1

[7] = tested on: oilseed rape (Brassica napus); settings: for Oilseed Rape plant response rating: scale 0 to 100 (0 no effect, 100 complete control)
Summary of the method: as §1

[8] = tested on: ragweed (common ragweed, Ambrosia elatior); settings: for Ragweed plant response rating: scale 0 to 100 (0 no effect, 100 complete control)
Summary of the method: as §1

[9] = tested on: ryegrass, Italian (Italian ryegrass, Lolium multiflorum); settings: for Ryegrass, Italian plant response rating: scale 0 to 100 (0 no effect, 100 complete control)
Summary of the method: as §1

soybean (Glycine max) = settings: for Soybean plant response rating: scale 0 to 100 (0 no effect, 100 complete control)
Summary of the method: as §1

[10] = tested on: velvetleaf (Abutilon theophrasti); settings: for Velvetleaf plant response rating: 125 g ai/ha, scale 0 to 100 (0 no effect, 100 complete control)
Summary of the method: as §1

[11] = tested on: waterhemp (common waterhemp, Amaranthus rudis); settings: for Waterhemp plant response rating: 125 g ai/ha, scale 0 to 100 (0 no effect, 100 complete control)
Summary of the method: as §1

[12] = tested on: wheat (winter wheat, Triticum aestivum); settings: for Wheat plant response rating: 125 g ai/ha, scale 0 to 100 (0 no effect, 100 complete control)
Summary of the method: as §1

CCCCC(=O)c1c(Br)cccc1Oc1ncc(Cl)cn1 [Compound 79]
60: Plant response rating, Oat, Wild ([6]; 31 g ai/ha, scale 0 to 100) | Plant response rating, Soybean (soybean (Glycine max); 16 g ai/ha, scale of 0 to 100)
95: Galium plant response rating ([3]; 125 g ai/ha) | Plant response rating, Waterhemp ([11]; 16 g ai/ha, scale of 0 to 100) | Plant response rating, Waterhemp ([11]; 31 g ai/ha, scale 0 to 100)
25: Plant response rating, Corn (corn (Zea mays); 31 g ai/ha, scale 0 to 100) | Plant response rating, Crabgrass, Large ([2]; 31 g ai/ha, scale 0 to 100) | Ryegrass, Italian plant response rating ([9]; 62 g ai/ha)
35: Oat, Wild plant response rating ([6]; 125 g ai/ha)
0: Plant response rating, Nutsedge, Yellow ([5]; 16 g ai/ha, scale of 0 to 100)
85: Galium plant response rating ([3]; 62 g ai/ha) | Plant response rating, Lambsquarters ([4]; 31 g ai/ha, scale 0 to 100)
45: Oat, Wild plant response rating ([6]; 62 g ai/ha)
15: Plant response rating, Corn (corn (Zea mays); 16 g ai/ha, scale of 0 to 100) | Plant response rating, Oat, Wild ([6]; 16 g ai/ha, scale of 0 to 100) | Wheat plant response rating [12]
80: Plant response rating, Galium ([3]; 31 g ai/ha, scale 0 to 100) | Plant response rating, Kochia (kochia (Kochia scoparia); 31 g ai/ha, scale 0 to 100) | Plant response rating, Oilseed Rape ([7]; 16 g ai/ha, scale of 0 to 100)
20: Plant response rating, Blackgrass ([1]; 16 g ai/ha) | Blackgrass plant response rating ([1]; 62 g ai/ha) | Corn plant response rating (corn (Zea mays); 62 g ai/ha) | Corn plant response rating (corn (Zea mays); 125 g ai/ha) | Plant response rating, Ragweed ([8]; 31 g ai/ha, scale 0 to 100)
90: Kochia plant response rating (kochia (Kochia scoparia); 62 g ai/ha) | Lambsquarters plant response rating ([4]; 62 g ai/ha) | Velvetleaf plant response rating [10]
75: Plant response rating, Galium ([3]; 16 g ai/ha, scale of 0 to 100) | Plant response rating, Kochia (kochia (Kochia scoparia); 16 g ai/ha, scale of 0 to 100) | Plant response rating, Lambsquarters ([4]; 16 g ai/ha, scale of 0 to 100) | Ragweed plant response rating ([8]; 62 g ai/ha) | Plant response rating, Velvetleaf ([10]; 31 g ai/ha, scale 0 to 100)
70: Crabgrass, Large plant response rating ([2]; 62 g ai/ha) | Plant response rating, Soybean (soybean (Glycine max); 31 g ai/ha, scale 0 to 100)
30: Blackgrass plant response rating ([1]; 125 g ai/ha) | Plant response rating, Ragweed ([8]; 16 g ai/ha, scale of 0 to 100) | Plant response rating, Ryegrass, Italian ([9]; 31 g ai/ha, scale 0 to 100) | Ryegrass, Italian plant response rating ([9]; 125 g ai/ha) | Plant response rating, Velvetleaf ([10]; 16 g ai/ha, scale of 0 to 100)
10: Plant response rating, Blackgrass ([1]; 31 g ai/ha) | Plant response rating, Crabgrass, Large ([2]; 16 g ai/ha, scale of 0 to 100)
5: Plant response rating, Nutsedge, Yellow ([5]; 31 g ai/ha, scale 0 to 100) | Nutsedge, Yellow plant response rating ([5]; 62 g ai/ha) | Nutsedge, Yellow plant response rating ([5]; 125 g ai/ha) | Plant response rating, Ryegrass, Italian ([9]; 16 g ai/ha, scale of 0 to 100) | Plant response rating, Wheat ([12]; 16 g ai/ha, scale of 0 to 100) | Plant response rating, Wheat ([12]; 31 g ai/ha, scale 0 to 100)
98: Kochia plant response rating (kochia (Kochia scoparia); 125 g ai/ha) | Plant response rating, Oilseed Rape ([7]; 31 g ai/ha, scale 0 to 100) | Oilseed Rape plant response rating ([7]; 62 g ai/ha) | Waterhemp plant response rating [11]
100: Lambsquarters plant response rating ([4]; 125 g ai/ha) | Oilseed Rape plant response rating ([7]; 125 g ai/ha)
65: Crabgrass, Large plant response rating ([2]; 125 g ai/ha) | Ragweed plant response rating ([8]; 125 g ai/ha) | Soybean plant response rating (soybean (Glycine max); 62 g ai/ha) | Soybean plant response rating (soybean (Glycine max); 125 g ai/ha)

N#Cc1cccc(Oc2ncc(Cl)cn2)c1COCCC(F)(F)F [Compound 80]
80: Kochia plant response rating (kochia (Kochia scoparia); 62 g ai/ha) | Kochia plant response rating (kochia (Kochia scoparia); 125 g ai/ha) | Lambsquarters plant response rating ([4]; 62 g ai/ha) | Plant response rating, Waterhemp ([11]; 16 g ai/ha, scale of 0 to 100) | Plant response rating, Waterhemp ([11]; 31 g ai/ha, scale 0 to 100)
75: Plant response rating, Galium ([3]; 31 g ai/ha, scale 0 to 100) | Plant response rating, Kochia (kochia (Kochia scoparia); 31 g ai/ha, scale 0 to 100) | Plant response rating, Lambsquarters ([4]; 31 g ai/ha, scale 0 to 100) | Plant response rating, Soybean (soybean (Glycine max); 31 g ai/ha, scale 0 to 100)
5: Plant response rating, Blackgrass ([1]; 31 g ai/ha) | Blackgrass plant response rating ([1]; 62 g ai/ha) | Nutsedge, Yellow plant response rating ([5]; 62 g ai/ha) | Nutsedge, Yellow plant response rating ([5]; 125 g ai/ha) | Oat, Wild plant response rating ([6]; 125 g ai/ha) | Plant response rating, Ragweed ([8]; 16 g ai/ha, scale of 0 to 100) | Ryegrass, Italian plant response rating ([9]; 62 g ai/ha) | Ryegrass, Italian plant response rating ([9]; 125 g ai/ha)
25: Blackgrass plant response rating ([1]; 125 g ai/ha) | Corn plant response rating (corn (Zea mays); 125 g ai/ha)
90: Galium plant response rating ([3]; 125 g ai/ha) | Soybean plant response rating (soybean (Glycine max); 62 g ai/ha) | Waterhemp plant response rating [11]
55: Plant response rating, Kochia (kochia (Kochia scoparia); 16 g ai/ha, scale of 0 to 100) | Velvetleaf plant response rating [10]
10: Plant response rating, Corn (corn (Zea mays); 31 g ai/ha, scale 0 to 100) | Plant response rating, Crabgrass, Large ([2]; 16 g ai/ha, scale of 0 to 100) | Crabgrass, Large plant response rating ([2]; 62 g ai/ha) | Oat, Wild plant response rating ([6]; 62 g ai/ha) | Plant response rating, Ragweed ([8]; 31 g ai/ha, scale 0 to 100)
50: Plant response rating, Lambsquarters ([4]; 16 g ai/ha, scale of 0 to 100) | Plant response rating, Oilseed Rape ([7]; 16 g ai/ha, scale of 0 to 100)
65: Oilseed Rape plant response rating ([7]; 62 g ai/ha)
0: Plant response rating, Blackgrass ([1]; 16 g ai/ha) | Plant response rating, Nutsedge, Yellow ([5]; 16 g ai/ha, scale of 0 to 100) | Plant response rating, Nutsedge, Yellow ([5]; 31 g ai/ha, scale 0 to 100) | Plant response rating, Oat, Wild ([6]; 16 g ai/ha, scale of 0 to 100) | Plant response rating, Oat, Wild ([6]; 31 g ai/ha, scale 0 to 100) | Plant response rating, Ryegrass, Italian ([9]; 16 g ai/ha, scale of 0 to 100) | Plant response rating, Ryegrass, Italian ([9]; 31 g ai/ha, scale 0 to 100) | Plant response rating, Wheat ([12]; 16 g ai/ha, scale of 0 to 100) | Plant response rating, Wheat ([12]; 31 g ai/ha, scale 0 to 100)
30: Crabgrass, Large plant response rating ([2]; 125 g ai/ha) | Plant response rating, Velvetleaf ([10]; 16 g ai/ha, scale of 0 to 100)
70: Plant response rating, Galium ([3]; 16 g ai/ha, scale of 0 to 100) | Oilseed Rape plant response rating ([7]; 125 g ai/ha)
15: Plant response rating, Corn (corn (Zea mays); 16 g ai/ha, scale of 0 to 100) | Corn plant response rating (corn (Zea mays); 62 g ai/ha) | Plant response rating, Crabgrass, Large ([2]; 31 g ai/ha, scale 0 to 100) | Ragweed plant response rating ([8]; 62 g ai/ha) | Wheat plant response rating [12]
60: Plant response rating, Oilseed Rape ([7]; 31 g ai/ha, scale 0 to 100) | Plant response rating, Soybean (soybean (Glycine max); 16 g ai/ha, scale of 0 to 100)
95: Soybean plant response rating (soybean (Glycine max); 125 g ai/ha)
35: Ragweed plant response rating ([8]; 125 g ai/ha) | Plant response rating, Velvetleaf ([10]; 31 g ai/ha, scale 0 to 100)
85: Galium plant response rating ([3]; 62 g ai/ha) | Lambsquarters plant response rating ([4]; 125 g ai/ha)
